Experiments:
Notch cleavage = experiment: mNotchΔE Notch-1 cleavage assay in N2A cells (western blot, NICD); format: cell-based; conditions: N2A cells over-expressing mNotchΔE, 3 hours
Procedure: mNotchΔE Transfection and Notch-1 Cleavage Assays in N2A-APP695 Cells: N2A cells stably overexpressing APP Swedish mutant are transiently transfected to overexpress mNotchE (truncated Notch-1, lacking most of the Notch extracellular domain (Kopan, R., et al. (1996) Proc Natl Acad Sci USA 93, 1683-8). Cultures are preincubated with the different inhibitors for 3 hours. mNotchΔE is detected in cell lysates by western blot analysis using the Cleaved Notch 1 antibody (NICD) available from Cell Signaling.
Several protein kinases and protein phosphatases have been implicated in the progression of Alzheimer's disease and especially in the regulation of β-amyloid formation. These include the protein kinases PKA, PKC, GSK3-β and CDK5, and the protein phosphatases PP1/PP2A and PP2B. […] Unfortunately, these effects are associated with increased carcinogenic risk. […] We therefore investigated the effect of CK1 inhibitors on Notch processing. Briefly, N2A cells transiently transfected with N-terminally truncated mNotchΔE-myc cDNA containing plasmid are incubated with 1, 10 μM concentrations of DAPT, 1,10 μM concentrations of L-685,458, 5, 50 μM concentrations of D4476 or 1, 10 μM concentrations of Gleevec for 3 hours. Cell lysates are analysed by conventional SDS-PAGE analysis and western blotting using anti-Notch (NICD cleavage product), anti-Aβ, anti-myc and anti-actin antibodies.

[1] = test system: Aβ40 and Aβ42 peptide production in N2A-APP695 cells transiently expressing CK1ε-271; experiment: Aβ40/Aβ42 ELISA in N2A-APP695 cells transiently expressing constitutively active CK1ε-271; format: cell-based; conditions: for effect on Aβ40 and Aβ42 peptide concentration/production: increasing concentrations, 3 hours incubation, ELISA
Procedure: (§1) N2A-APP695 cells are plated in 12-well dishes at a density of 3×10^5 cells per well in DMEM/Opti-MEM medium containing 5% Fetal Bovine Serum (FBS) following manufacturer's instructions (American Type Culture Collection).=For the time-course experiments, cells are exposed to drugs for 1-24 h.
Transfection: Transfection of N2A-APP695 cells is performed by standard methods. Cells are grown to 60% confluence and then transfected with relevant constructs with FUGENE6 according to the manufacturer's protocol (Roche Applied Bioscience). After transfection, cells are recovered with 100 μl of RIPA buffer, incubated for 30 min on ice, and centrifuged at 13,000 rpm 20 min at 4° C. The supernatants are collected and submitted to BCA (Pierce) quantification accordingly to manufacturer's instructions. Equal amounts of cell extracts are loaded onto 4-12% Bis-Tris acrylamide gels (Invitrogen) with MES buffer and subjected to western blot analysis using appropriate antibodies. For immunoprecipitation assays, media are incubated with antibody 4G8 (Signet) to detect Aβ and full length βAPP. Drugs are added to cell cultures in fresh medium (0.5% fetal bovine serum); media and cells are collected at the relevant time.
N2A cells stably expressing APP-695 are transiently transfected with CK1ε-271. 48 hours post-transfection, cells are incubated in the absence or presence of increasing concentrations of CK1 inhibitor IC261. Cell supernatants are collected after 3 hours of incubation and subjected to Aβ40/Aβ42 ELISA assays. […] In order to exclude non-specific effects of IC261, two other CK1 inhibitors, CKI-7 and D4476 are tested.

[2] = test system: Aβ peptide production in N2A cells expressing APP-695; experiment: Endogenous Aβ peptide production in N2A cells expressing APP-695 (sandwich ELISA, immunoprecipitation/western blot); format: cell-based; conditions: for decrease for Aβ40 peptide / decrease for Aβ42 peptide: 50 μM, three hours, N2A cells expressing APP-695
Procedure: as §1
2003 Oct. 14; 100(21):12444-9.
We next investigated the effect of the three different classes of CK1 inhibitors CKI-7, IC-261, and D4476 (Chijiwa, T., et al. (1989) J Biol Chem 264, 4924-7; Mashhoon, N., et al. (2000) J Biol Chem 275, 20052-60; Rena, G., et al. (2004) EMBO Rep 5, 60-5) on Aβ peptide production in N2A cells expressing APP-695.

N2A-APP695 cells = experiment: Cell viability: lactate dehydrogenase release into media (CytoTox96 kit); format: cell-based
Source text: To exclude the possibility that the inhibitory effects on Aβ peptide production are due to cellular toxicity, we investigated the effects of the drugs on cell viability. Media are collected and tested for the level of lactate dehydrogenase, a stable cytosolic enzyme released upon cell lysis, using a non-radioactive CytoTox96 kit (Promega). Values obtained from drug treated cells are compared with values obtained with DMSO and non-treated cells. No toxicity is observed for CKI-7, even after 24 hours of incubation and for the highest concentration tested (50 μM). A slight toxicity (less than 1-fold) is observed for D4476, only for the higher dose tested (50 μM) and only after 24 hours of incubation.

APP-C99 in N2A cells = experiment: C99 breakdown and Aβ production in N2A cells transiently transfected with APP-C99; conditions: 3 hours
Procedure: Cellular extracts are subjected to western blotting analysis using βCTF or APP antibodies, or to Aβ40 ELISA assays. N2A cells are transiently transfected with a APP-C99 containing plasmid. […] Cell lysates are analyzed by SDS-PAGE and western blotting analysis or by Aβ40 ELISA assay. Data for at least three experiments (mean±S.E.M.) are compared (Prism) with the control conditions (no drug).

[3] = test system: APP, βCTF and Aβ40 peptide levels in N2A-APP695 cells; experiment: APP, βCTF and Aβ40 levels in N2A-APP695 cells (western blot, Aβ40 ELISA); conditions: 50 μM, 3 hours
Procedure: Aβ quantification: After immobilization of total Aβ (coated monoclonal antibody specific for the N-terminus of Aβ from media, Aβ40/42 peptide determinations are made by sandwich ELISA (BioSource International) using rabbit polyclonal antibodies specific for the C-terminus of Aβ40 or Aβ42. In all cases, Aβ levels are normalized to total protein levels.
The effects of D4476 on APP, βCTF and Aβ40 peptide levels in N2A-APP695 cells are compared. N2A cells are incubated for 3 hours with 0, 1, 5 or 50 μM concentrations of D4476. Cellular extracts are subjected to western blotting analysis using βCTF or APP antibodies, or to Aβ40 ELISA assays. […] Data for at least three experiments (mean±S.E.M.) are compared (Prism) with the control conditions (no drug).

CK1 = conditions: Rena et al. (2004) EMBO Rep 5, 60-5; cited from earlier work
[4] = CK1ε-271 over-expressing N2A-APP695 cells

| SMILES | Notch cleavage (Notch cleavage) | effect on Aβ40 and Aβ42 peptide concentration/production [1, 4] | decrease for Aβ40 peptide [2] [%] | decrease for Aβ42 peptide [2] [%] | further results |
| --- | --- | --- | --- | --- | --- |
| COc1cc(OC)c(/C=C2/C(=O)Nc3ccccc32)c(OC)c1 [IC261, (3E)-3-[(2,4,6-trimethoxyphenyl)methylidene]-1 H-indol-2-one] | not affected | dramatic reduction | 48 | 52.4 | concentration at which the effect on Aβ40/Aβ42 is near maximum ([1]; CK1ε-271 over-expressing N2A-APP695 cells, 3 hours): 5 µM; time dependence of the reduction of Aβ40 and Aβ42 peptide concentration ([1]; longer exposure gives greater reduction): time-dependent effect; toxicity (lactate dehydrogenase release) (N2A-APP695 cells; after 12 hours of incubation): No effect on toxicity |
| NC(=O)c1ccc(-c2nc(-c3ccc4c(c3)OCO4)c(-c3ccccn3)[nH]2)cc1 [SB-431542, 4-(4-(benzo[1,3]dioxol-5-yl)-5-pyridin-2-yl-1H-imidazol-2-yl)benzamide] | – | – | – | – | properties on Aβ peptide formation compared with D4476 [2]: very comparable properties |
| NCCNS(=O)(=O)c1ccc(Cl)c2ccncc12 [CKI-7] | not affected | significant and dose-dependent reduction | 14.8 | 24 | toxicity (lactate dehydrogenase release) (N2A-APP695 cells; 24 hours of incubation, highest concentration tested (50 μM)): No toxicity |
| NC(=O)c1ccc(-c2nc(-c3ccc4c(c3)OCCO4)c(-c3ccccn3)[nH]2)cc1 [D4476, 4-(4-(2,3-dihydrobenzo[1,4]dioxin-6-yl)-5-pyridin-2-yl-1H-imidazol-2-yl)benzamide] | not affected | significant and dose-dependent reduction | 42 | 54.1 | lowest concentration at which effects on C99 breakdown and Aβ production are apparent (APP-C99 in N2A cells): 5 µM; Aβ peptide production (APP-C99 in N2A cells; various concentrations): decreased Aβ peptide production in a dose dependent manner; breakdown of C99 (APP-C99 in N2A cells; various concentrations): inhibited the breakdown of C99; APP expression level [3]: no effect; Aβ peptide production [3]: considerably reduces; βCTF levels [3]: significantly increases; concentration required to observe an effect on CK1 activity in cell lines (CK1): 50 µM; toxicity (lactate dehydrogenase release), fold (N2A-APP695 cells; slight toxicity only at 50 μM and only after 24 hours, compared with DMSO and non-treated cells): less than 1 fold |
| C[C@H](NC(=O)Cc1cc(F)cc(F)c1)C(=O)N[C@H](C(=O)OC(C)(C)C)c1ccccc1 [DAPT] | total inhibition | – | – | – | – |
